Source: patent publication US20200187499A1, “SUBSTITUTED BENZYL-4-AMINOPICOLINIC ESTERS AND PYRIMIDINO-4-CARBOXYLIC ESTERS, METHODS FOR THE PRODUCTION THEREOF, AND USE THEREOF AS HERBICIDES AND PLANT GROWTH REGULATORS” (Bayer CropScience Aktiengesellschaft, priority 2017, published 2020)

What was measured:
Type in all cases: in vivo
AMARE [1] = experiment: Post-emergence herbicidal action; settings: 320 g/ha, assessed after about 3 weeks
Experimental: (§1) Seeds of monocotyledonous and dicotyledonous weed and crop plants are laid out in sandy loam soil in wood-fiber pots, covered with soil and cultivated in a greenhouse under good growth conditions. 2 to 3 weeks after sowing, the test plants are treated at the one-leaf stage. The compounds of the invention, formulated in the form of wettable powders (WP) or as emulsion concentrates (EC), are then sprayed onto the green parts of the plants in the form of an aqueous suspension or emulsion at a water application rate equating to 600 to 800 l/ha, with addition of 0.2% wetting agent. After the test plants have been left to stand in the greenhouse under optimal growth conditions for about 3 weeks, the action of the preparations is assessed visually in comparison to untreated controls (herbicidal action in percent (%): 100% activity=the plants have died, 0% activity=like control plants). […] At the same time, inventive compounds leave Gramineae crops such as barley, wheat, rye, millet/sorghum, corn or rice virtually undamaged when applied post-emergence, even at high active ingredient dosages. In addition, some substances are also harmless to dicotyledonous crops such as soya, cotton, oilseed rape, sugar beet or potatoes. Some of the compounds according to the invention have high selectivity and are therefore suitable for controlling unwanted vegetation in agricultural crops by the post-emergence method. The tables below illustrate, in an exemplary manner, the post-emergence herbicidal action of the compounds according to the invention, the herbicidal activity being stated in percent.

SETVI [2] = experiment: Post-emergence herbicidal action; settings: 320 g/ha, assessed after about 3 weeks
Experimental: as §1

ABUTH [3] = experiment: Post-emergence herbicidal action; settings: 320 g/ha, assessed after about 3 weeks
Experimental: as §1

STEME = experiment: Post-emergence herbicidal action; settings: 320 g/ha, assessed after about 3 weeks
Experimental: as §1

AMARE [4] = experiment: Pre-emergence herbicidal action; settings: 320 g/ha, scored after 3 weeks
Description: (§2) Seeds of monocotyledonous and dicotyledonous weed plants and crop plants are laid out in sandy loam soil in wood-fiber pots and covered with soil. The compounds of the invention, formulated in the form of wettable powders (WP) or as emulsion concentrates (EC), are then applied to the surface of the covering soil in the form of an aqueous suspension or emulsion at a water application rate equating to 600 to 800 I/ha, with addition of 0.2% wetting agent. After the treatment, the pots are placed in a greenhouse and kept under good growth conditions for the trial plants. The damage to the test plants is scored visually after a test period of 3 weeks by comparison with untreated controls (herbicidal activity in percent (%): 100% activity=the plants have died, 0% activity=like control plants).
(§3) At the same time, inventive compounds leave Gramineae crops such as barley, wheat, rye, millet/sorghum, corn or rice virtually undamaged when applied pre-emergence, even at high active ingredient dosages. In addition, some substances are also harmless to dicotyledonous crops such as soya, cotton, oilseed rape, sugar beet or potatoes. […] The tables below illustrate, in an exemplary manner, the pre-emergence herbicidal action of the compounds according to the invention, the herbicidal activity being stated in percent.

SETVI [5] = experiment: Pre-emergence herbicidal action; settings: Table 3, pre-emergence (PE), 320 g/ha, scored after 3 weeks
Description: as §2, §3

ABUTH [6] = experiment: Pre-emergence herbicidal action; settings: Table 3, pre-emergence (PE), 320 g/ha, scored after 3 weeks
Description: as §2, §3

ALOMY = experiment: Pre-emergence herbicidal action; settings: Table 3, pre-emergence (PE), 320 g/ha, scored after 3 weeks
Description: as §2, §3

ECHCG [7] = experiment: Pre-emergence herbicidal action; settings: 320 g/ha, scored after 3 weeks
Description: as §2, §3

POLCO = experiment: Post-emergence herbicidal action; settings: Table 5, post-emergence (PO), 320 g/ha, assessed after about 3 weeks
Experimental: as §1

PHBPU = experiment: Post-emergence herbicidal action; settings: Table 5, post-emergence (PO), 320 g/ha, assessed after about 3 weeks
Experimental: as §1

VIOTR = experiment: Post-emergence herbicidal action; settings: Table 5, post-emergence (PO), 320 g/ha, assessed after about 3 weeks
Experimental: as §1

ECHCG [8] = experiment: Post-emergence herbicidal action; settings: 320 g/ha, assessed after about 3 weeks
Experimental: as §1

Row | SMILES | Herbicidal action against AMARE (AMARE [1]; Table 6, post-emergence (PO)) | Herbicidal action against SETVI (SETVI [2]; Table 6, post-emergence (PO)) | Herbicidal action against ABUTH (ABUTH [3]; Table 6, post-emergence (PO)) | Herbicidal action against STEME (STEME; Table 6, post-emergence (PO)) | Herbicidal action against AMARE (AMARE [4]; Table 3, pre-emergence (PE)) | Herbicidal action against SETVI (SETVI [5]) | Herbicidal action against ABUTH (ABUTH [6]) | Herbicidal action against ALOMY (ALOMY) | Herbicidal action against ECHCG (ECHCG [7]; Table 3, pre-emergence (PE)) | Herbicidal action against AMARE (AMARE [4]; Table 4, pre-emergence (PE)) | Herbicidal action against ECHCG (ECHCG [7]; Table 4, pre-emergence (PE)) | other results
1 | Nc1c(F)c(-c2ccc3occc3c2)nc(C(=O)OCc2ccc(Cl)cc2)c1Cl [Example I-47] | 90% | 70% | 90% | 80% | 100% | 50% | 20% | 60% | 70% | – | – | –
2 | Nc1c(F)c(-c2ccc3ccsc3c2)nc(C(=O)OCc2ccc(F)cc2)c1Cl [Example I-53] | – | – | – | – | – | – | – | – | – | 100% | 70% | Herbicidal action against AMARE (AMARE [1]; Table 5, post-emergence (PO)): 100%; Herbicidal action against SETVI (SETVI [2]; Table 5, post-emergence (PO)): 90%; Herbicidal action against ABUTH (ABUTH [3]; Table 5, post-emergence (PO)): 80%; Herbicidal action against POLCO (POLCO): 80%; Herbicidal action against PHBPU (PHBPU): 0%; Herbicidal action against STEME (STEME; Table 5, post-emergence (PO)): 100%; Herbicidal action against VIOTR (VIOTR): 10%; Herbicidal action against ECHCG (ECHCG [8]; Table 5, post-emergence (PO)): 90%
3 | Nc1cc(-c2ccc3occc3c2)nc(C(=O)OCc2cccc(C(F)(F)F)c2)c1Cl [Example I-11] | 100% | 90% | 100% | 100% | 100% | 100% | 20% | 80% | 80% | – | – | –
4 | Nc1cc(-c2ccc3occc3c2)nc(C(=O)OCc2ccc(Cl)cc2)c1Cl [Example I-31] | 100% | 90% | 100% | 100% | 90% | 50% | 30% | 20% | 30% | – | – | –
5 | Nc1c(F)c(-c2ccc3sccc3c2)nc(C(=O)OCc2ccc(Cl)cc2)c1Cl [Example I-65] | – | – | – | – | – | – | – | – | – | – | – | Herbicidal action against AMARE (AMARE [1]; Table 5, post-emergence (PO)): 100%; Herbicidal action against SETVI (SETVI [2]; Table 5, post-emergence (PO)): 90%; Herbicidal action against ABUTH (ABUTH [3]; Table 5, post-emergence (PO)): 80%; Herbicidal action against POLCO (POLCO): 100%; Herbicidal action against PHBPU (PHBPU): 0%; Herbicidal action against STEME (STEME; Table 5, post-emergence (PO)): 80%; Herbicidal action against VIOTR (VIOTR): 10%; Herbicidal action against ECHCG (ECHCG [8]; Table 5, post-emergence (PO)): 80%
6 | Nc1cc(-c2ccc3ccsc3c2)nc(C(=O)OCc2c(F)cc(F)cc2F)c1Cl [Example I-32] | – | – | – | – | 100% | 80% | 30% | 70% | 80% | – | – | Herbicidal action against AMARE (AMARE [1]; Table 9, post-emergence (PO)): 100%; Herbicidal action against ABUTH (ABUTH [3]; Table 9, post-emergence (PO)): 90%
7 | Nc1c(F)c(-c2ccc3occc3c2)nc(C(=O)OCc2c(F)cc(F)cc2F)c1Cl [Example I-52] | 90% | 20% | 80% | 80% | 80% | 40% | 20% | 80% | 30% | – | – | –
8 | Nc1cc(-c2ccc3ccoc3c2)nc(C(=O)OCc2ccc(F)cc2F)c1Cl [Example I-43] | – | – | – | – | – | – | – | – | – | 100% | 0% | Herbicidal action against AMARE (AMARE [1]; Table 7, post-emergence (PO)): 100%; Herbicidal action against AMARE (AMARE [1]; Table 8, post-emergence (PO)): 100%; Herbicidal action against SETVI (SETVI [2]; Table 7, post-emergence (PO)): 90%; Herbicidal action against SETVI (SETVI [2]; Table 8, post-emergence (PO)): 90%; Herbicidal action against ABUTH (ABUTH [3]; Table 7, post-emergence (PO)): 90%; Herbicidal action against ABUTH (ABUTH [3]; Table 8, post-emergence (PO)): 90%; Herbicidal action against ECHCG (ECHCG [8]; Table 7, post-emergence (PO)): 80%; Herbicidal action against ECHCG (ECHCG [8]; Table 8, post-emergence (PO)): 80%
9 | COc1ccc(COC(=O)c2nc(-c3ccc4ccoc4c3)c(F)c(N)c2Cl)c(OC)c1 [Example I-35] | – | – | – | – | – | – | – | – | – | 100% | 40% | Herbicidal action against AMARE (AMARE [1]; Table 5, post-emergence (PO)): 100%; Herbicidal action against SETVI (SETVI [2]; Table 5, post-emergence (PO)): 100%; Herbicidal action against ABUTH (ABUTH [3]; Table 5, post-emergence (PO)): 80%; Herbicidal action against POLCO (POLCO): 80%; Herbicidal action against PHBPU (PHBPU): 20%; Herbicidal action against STEME (STEME; Table 5, post-emergence (PO)): 90%; Herbicidal action against VIOTR (VIOTR): 60%; Herbicidal action against ECHCG (ECHCG [8]; Table 5, post-emergence (PO)): 90%
10 | COc1c(F)ccc(COC(=O)c2nc(-c3ccc4occc4c3)cc(N)c2Cl)c1F [Example I-17] | – | – | – | – | – | – | – | – | – | 100% | 90% | Herbicidal action against AMARE (AMARE [1]; Table 7, post-emergence (PO)): 100%; Herbicidal action against AMARE (AMARE [1]; Table 8, post-emergence (PO)): 100%; Herbicidal action against SETVI (SETVI [2]; Table 7, post-emergence (PO)): 100%; Herbicidal action against SETVI (SETVI [2]; Table 8, post-emergence (PO)): 100%; Herbicidal action against ABUTH (ABUTH [3]; Table 7, post-emergence (PO)): 90%; Herbicidal action against ABUTH (ABUTH [3]; Table 8, post-emergence (PO)): 90%; Herbicidal action against ECHCG (ECHCG [8]; Table 7, post-emergence (PO)): 90%; Herbicidal action against ECHCG (ECHCG [8]; Table 8, post-emergence (PO)): 90%
11 | Nc1c(F)c(-c2ccc3ccsc3c2)nc(C(=O)OCc2ccc(F)cc2F)c1Cl [Example I-42] | 90% | 20% | 80% | 80% | 100% | 20% | 0% | 30% | 40% | – | – | –
12 | Nc1cc(-c2ccc3ccsc3c2)nc(C(=O)OCc2c(F)c(F)c(F)c(F)c2F)c1Cl [Example I-25] | 100% | 100% | 90% | 100% | 100% | 80% | 0% | 60% | 70% | – | – | –
13 | Nc1c(F)c(-c2ccc3occc3c2)nc(C(=O)OCc2ccc(F)cc2)c1Cl [Example I-34] | – | – | – | – | – | – | – | – | – | 100% | 50% | Herbicidal action against AMARE (AMARE [1]; Table 5, post-emergence (PO)): 100%; Herbicidal action against SETVI (SETVI [2]; Table 5, post-emergence (PO)): 100%; Herbicidal action against ABUTH (ABUTH [3]; Table 5, post-emergence (PO)): 90%; Herbicidal action against POLCO (POLCO): 80%; Herbicidal action against PHBPU (PHBPU): 40%; Herbicidal action against STEME (STEME; Table 5, post-emergence (PO)): 90%; Herbicidal action against VIOTR (VIOTR): 0%; Herbicidal action against ECHCG (ECHCG [8]; Table 5, post-emergence (PO)): 80%
14 | Nc1c(F)c(-c2ccc3ccoc3c2)nc(C(=O)OCc2ccc(Cl)cc2)c1Cl [Example I-15] | 100% | 80% | 100% | 80% | 100% | 0% | 90% | 0% | 30% | – | – | –
15 | Nc1cc(-c2ccc3ccoc3c2)nc(C(=O)OCc2c(F)c(F)c(F)c(F)c2F)c1Cl [Example I-54] | – | – | – | – | – | – | – | – | – | 80% | 0% | Herbicidal action against AMARE (AMARE [1]; Table 7, post-emergence (PO)): 100%; Herbicidal action against AMARE (AMARE [1]; Table 8, post-emergence (PO)): 100%; Herbicidal action against SETVI (SETVI [2]; Table 7, post-emergence (PO)): 80%; Herbicidal action against SETVI (SETVI [2]; Table 8, post-emergence (PO)): 80%; Herbicidal action against ABUTH (ABUTH [3]; Table 7, post-emergence (PO)): 80%; Herbicidal action against ABUTH (ABUTH [3]; Table 8, post-emergence (PO)): 80%; Herbicidal action against ECHCG (ECHCG [8]; Table 7, post-emergence (PO)): 80%; Herbicidal action against ECHCG (ECHCG [8]; Table 8, post-emergence (PO)): 80%
16 | Nc1cc(-c2ccc3ccoc3c2)nc(C(=O)OCc2ccc(Cl)cc2)c1Cl [Example I-30] | 100% | 90% | 90% | 100% | 100% | 90% | 20% | 40% | 100% | – | – | –
